Reference: patent US20120065084A1, “METHODS AND TOOLS FOR PREDICTING THE EFFICIENCY OF ANTHRACYCLINES IN CANCER” (UNIVERSITE LIBRE DE BRUXELLES, priority 2010, published 2012)

System: primary breast tumor
Assay: neoadjuvant prospective TOP trial: pathological complete response to anthracyclines (epirubicin) monotherapy
Type: in vivo, human
Method: One hundred and forty-nine patients were included in the prospective TOP trial. Out of these patients, 89 received 4 cycles of anthracyclines every 3 weeks, 59 patients received 6 cycles of anthracyclines administered every 2 weeks (dose-dense scheme) and one was not treated according to the protocol due to ineligibility.
The neoadjuvant prospective “TOP” (Trial of Principle) trial was conducted at different European hospitals and coordinated by the Institut Jules Bordet. This study is registered on the clinical trials site of the US National Cancer Institute website http://clinicaltrials.gov/ct2/show/NCT00162812?term=NCT00162812&rank=1. One hundred and forty-nine patients have been included in this trial. Anthracyclines (Epirubicin) monotherapy (100 mg/m2) was given as neo-adjuvant chemotherapy: every 3 weeks×4 cycles for early BC or every 2 weeks×6 cycles with Neulasta® 6 mg on day 2 for patients with inflammatory or locally advanced breast cancer. At completion of chemotherapy, every patient underwent surgery with axillary node sampling. After surgery, adjuvant docetaxel (100 mg/m2×4 cycles) and loco-regional irradiation were administered using standard criteria. This study was primarily designed for the identification of biomarkers of response to anthracyclines (epirubicin).
All patients underwent pretreatment core biopsies of the primary breast tumor before starting neo-adjuvant chemotherapy using a 14G needle. Two biopsies were embedded in OCT (Sakura), frozen in liquid nitrogen within 5 minutes and transferred to a −80° C. freezer. Two biopsies were fixed in formalin and embedded in paraffin. Both fixed and frozen samples were retrieved and stored at the Institut Jules Bordet in Brussels, where the TOP2A evaluations were carried out. Pathologic response was determined by microscopic examination of the excised tumor and nodes after completion of chemotherapy. Pathological complete response (pCR) was defined by the absence of residual invasive breast carcinoma (macro and microscopic) in the breast and in the axillary nodes. Persistence of in-situ carcinoma without invasive component was considered pCR.

Structure (SMILES): COc1cccc2c1C(=O)c1c(O)c3c(c(O)c1C2=O)C[C@@](O)(C(=O)CO)C[C@@H]3O[C@H]1C[C@H](N)[C@@H](O)[C@H](C)O1 [anthracyclines, Epirubicin]
- pathological complete response (pCR) rate (3-weekly scheme (every 3 weeks x 4 cycles)): 14%
- proportion of patients who presented a pCR (HER2-negative patients (FISH)): 10%
- proportion of patients who presented a pCR (HER2-positive patients (FISH)): 23%
- pathological complete response (pCR) rate (all patients of the TOP trial, neo-adjuvant epirubicin monotherapy 100 mg/m2): 15%
- pathological complete response (pCR) rate (dose-dense scheme (every 2 weeks x 6 cycles)): 16%
- patients who responded to the anthracyclines therapy (pCR) (patients whose tumors had no TOP2A amplification (FISH)): 9%
- patients who responded to the anthracyclines therapy (pCR) (patients with TOP2A amplified tumors (FISH)): 55%
